Entries after “also recorded” stand apart in the source; their conditions may differ. Like-named read-outs stand apart in the source and are kept apart here.
What was measured:
[1] = test system: p70 phosphorylation (mTORC1 activity) in 8226 cells; assay: p70 phosphorylation Western blot (TORC1 activity) in 8226 cells; format: cell-based; conditions: for p70 phosphorylation vs the parent B / induction of p70 phosphorylation / p70 phosphorylation vs compound B at lower concentrations: 6 hrs; for p70 phosphorylation vs the parent B: compound B arbitrarily 1; for p70 phosphorylation vs compound B at lower concentrations: as low as 0.25 uM
Method: In mTORC1, mTOR phosphorylates the p70S6 kinase.
(§1) The 8226 and MM1.S myeloma cell lines were purchased from ATCC. The cell lines were characterized by FISH analysis and shown to contain MAF/Ig translocations. Western blot confirmed a significant over-expression of DEPTOR protein. Both lines were tested for mycoplasma within the last 6 months and were negative. Western blot assay—Protein was extracted and separated by 12.5% SDS-PAGE as previously described (see new ref below). Proteins were transferred to polyvinylidene difluoride membranes and their expression was detected utilizing specific antibodies purchased from Cell Signaling (Beverly, Mass.).

8226 MM cell line = assay: MTT cytotoxicity assay, 8226 MM cells; conditions: for IC50: 48 h; for anti-MM cytotoxicity in MTT assay compared to parent B: 48 hr MTT
Method: In mTORC1, mTOR phosphorylates the p70S6 kinase. Thus, a Western blot was used to test for induction of p70 phosphorylation in this secondary screen. Compounds were tested at 0.5, 1, and 2 uM with 6 hrs in vitro exposure. […] A summary of the p70 phosphorylation data from 4 separate experiments where derivatives were used at 0.5 uM, is shown in FIG. 3B. These first 8 derivatives were also screened for cytotoxicity against the same 8226 MM cell line in 48 hr MTT assays.
P70 phosphorylation was measured in 8226 cells treated for 6 hrs. […] The structures and biological activity of all derivatives are shown in Tables 1-4, categorized by structural modification.
The MTT assay was performed by seeding 1-2×10^4 target cells in 0.1 ml of complete media into wells of a 96 well microtiter plate. After incubation with compounds, the reduction of MTT to formazan by live cells was determined with a microplate ELISA reader equipped with a 570 nm filter.
The induction of p70 phosphorylation by derivative compounds was determined by densitometry, comparing immunoblot signals of phosphorylated p70 vs total p70. This ratio was then compared to that resulting from parental compound B, with the latter ratio arbitrarily placed at ‘1’. The IC50 for MTT cytotoxicity was determined using a range of concentrations of derivatives. Percent apoptosis was enumerated by flow cytometry in drug-treated cultures by subtracting control apoptosis determined from DMSO-treated cultures.

MM1.S MM cell line = assay: MTT cytotoxicity assay, MM1.S cells; format: cell-based; conditions: Homo sapiens, 48 hr
Method: The MTT assay was performed by seeding 1-2×10^4 target cells in 0.1 ml of complete media into wells of a 96 well microtiter plate. After incubation with compounds, the reduction of MTT to formazan by live cells was determined with a microplate ELISA reader equipped with a 570 nm filter. Quadruplicate wells were run for each group and the SD of each group was always <5% of the mean.

p21 expression = p21 expression immunoblot; format: cell-based
Method: (§2) These were then studied in more detail. […] This was clearly shown for 4d, 4e, 4 g, and 3 g.
as §1

8226 cells = assay: apoptosis assay (activated caspase 3, flow cytometry) in 8226 cells; format: cell-based; conditions: 48 hrs
Method: as §2
To identify apoptotic cells, a phycoerythrin (PE)-conjugated antibody specific for activated caspase 3 (BD Biosciences) was used. For staining, 10^6 cells were washed with PB S and fixed and permeabilized with 0.5 ml cytofix/cytoperm solution. The cells were then incubated with a 1:5 dilution of PE-conjugated monoclonal anti-caspase 3 antibody for 30 mins and analyzed by flow cytometry.

[2] = 8226 cells, 0.5 uM, compared to compound B
[3] = read-out: MTT (IC50, uM) 8226, 48 hr

Row | Structure (SMILES) | p70 phosphorylation vs the parent B ([1]; 8226 cells, 0.5 uM) | IC50 (8226 MM cell line; read-out: MTT (IC50, uM) 8226) | IC50 (MM1.S MM cell line) | induction of p70 phosphorylation [1, 2] | anti-MM cytotoxicity in MTT assay compared to parent B (8226 MM cell line) | further results
1 | CN(C)N=C1C(Cl)=C(Cl)C(Cl)=C1Cl [compound 3a, 1,1-Dimethyl-2-(perchlorocyclopenta-2,4-dien-1-ylidene)hydrazine] | no increase | > 3 µM | > 3 µM |  |  | 
2 | COC1(OC)C(Cl)=C(Cl)C(Cl)=C1Cl [7b, 1,2,3,4-Tetrachloro-5,5-dimethoxycyclopenta-1,3-diene] | no increase |  |  | poor activity | poor activity | IC50 (8226 MM cell line; [3]): > 5 µM
3 | NN=C1c2ccccc2-c2ccccc21 [6a, (9H-Fluoren-9-ylidene)hydrazine] | no increase | > 5 µM |  | did not show any improvement | did not show any improvement | 
4 | CC(=O)NN=C1C(Cl)=C(Cl)C(Cl)=C1Cl [4c, N′-(Perchlorocyclopenta-2,4-dien-1-ylidene)acetohydrazide] | no increase | 1 µM |  | no increase |  | 
5 | ClC1=C(Cl)C(Cl)=C(Cl)C1=NNc1cc(Cl)cc(Cl)c1 [3f, 1-(3,5-dichlorophenyl)-2-(perchlorocyclopenta-2,4-dien-1-ylidene)hydrazine] |  | 0.8 µM | 2 µM |  | lower IC50s; also recorded: enhanced cytotoxic effects | 
6 | NN=c1c2ccccc2oc2ccccc12 [6b, (9H-Xanthen-9-ylidene)hydrazine] | no increase | > 5 µM | > 5 µM | did not show any improvement | did not show any improvement | 
7 | O=C(c1ccccc1)N(N=C1C(Cl)=C(Cl)C(Cl)=C1Cl)C(=O)c1ccccc1 [compound 4b, N-Benzoyl-N′-(perchlorocyclopenta-2,4-dien-1-ylidene)benzohydrazide] |  | 0.8 µM | 2 µM | more effective than the parent compound B | lower IC50s; also recorded: enhanced cytotoxic effects | 
8 | Fc1ccccc1NN=C1C(Cl)=C(Cl)C(Cl)=C1Cl [3j, 1-(2-Fluorophenyl)-2-(perchlorocyclopenta-2,4-dien-1-ylidene)hydrazine] | no increase | > 3 µM | > 3 µM | no activity |  | 
9 | O=C(c1ccc(F)cc1)N(N=C1C(Cl)=C(Cl)C(Cl)=C1Cl)C(=O)c1ccc(F)cc1 [compound 4e, 4-Fluoro-N-(4-fluorobenzoyl)-N′-(perchlorocyclopenta-2,4-dien-1-ylidene)benzohydrazide] |  | 0.25 µM | 0.3 µM |  | enhanced cytotoxic effects | p70 phosphorylation vs compound B at lower concentrations [1]: significantly more effective; p21 expression compared to parent compound B (p21 expression): enhanced p21 expression; apoptosis activity compared to parent compound B (8226 cells): enhanced compared to parent compound B
10 | ON=C1C(Cl)=C(Cl)C(Cl)=C1Cl [7a, 2,3,4,5-Tetrachlorocyclopenta-2,4-dien-1-one oxime] | no increase |  |  | poor activity | poor activity | IC50 (8226 MM cell line; [3]): > 5 µM
11 | Cc1cccc(NN=C2C(Cl)=C(Cl)C(Cl)=C2Cl)c1 [3h, 1-(Perchlorocyclopenta-2,4-dien-1-ylidene)-2-(m-tolyl)hydrazine] | no increase | 2 µM | > 3 µM |  |  | 
12 | Fc1cccc(NN=C2c3ccccc3-c3ccccc32)c1 [6d, 1-(9H-Fluoren-9-ylidene)-2-(3-fluorophenyl)hydrazine] | no increase | > 5 µM | > 5 µM | did not show any activity | did not show any activity | 
13 | Fc1cccc(NN=C2C(Cl)=C(Cl)C(Cl)=C2Cl)c1 [3e, 1-(3-Fluorophenyl)-2-(perchlorocyclopenta-2,4-dien-1-ylidene)hydrazine] |  | 0.5 µM | 1.5 µM |  | lower IC50s; also recorded: enhanced cytotoxic effects | 
14 | Cc1ccc(C(=O)N(N=C2C(Cl)=C(Cl)C(Cl)=C2Cl)C(=O)c2ccc(C)cc2)cc1 [4f, 4-Methyl-N-(4-methylbenzoyl)-N′-(perchlorocyclopenta-2,4-dien-1-ylidene)benzohydrazide] |  | 0.5 µM | 0.5 µM |  | enhanced cytotoxic effects | 
15 | ClC1=C(Cl)C(Cl)=C(Cl)C1=NNC1CCCCC1 [3b, 1-Cyclohexyl-2-(perchlorocyclopenta-2,4-dien-1-ylidene)hydrazine] | no increase | > 3 µM | > 3 µM |  |  | 
16 | CC(C)(C)C(=O)NN=C1C(Cl)=C(Cl)C(Cl)=C1Cl [4d, N′-(Perchlorocyclopenta-2,4-dien-1-ylidene)pivalohydrazide] |  | 0.12 µM | 2 µM |  | enhanced cytotoxic effects | p70 phosphorylation vs compound B at lower concentrations [1]: significantly more effective; p21 expression compared to parent compound B (p21 expression): enhanced p21 expression; apoptosis activity compared to parent compound B (8226 cells): enhanced compared to parent compound B
17 | O=C(NN=C1C(Cl)=C(Cl)C(Cl)=C1Cl)c1ccccc1 [compound 4a, N′-(Perchlorocyclopenta-2,4-dien-1-ylidene)benzohydrazide] |  | 0.6 µM | 0.8 µM |  | enhanced cytotoxic effects | toxicity to 8226 cells in p70 experiment ([1]; 0.5 uM): considerable cell death; enhancement of p70 phosphorylation ([1]; 8226 cells, 0.05-0.2 uM): no enhancement of p70 phosphorylation; induction of p70 phosphorylation ([1]; 8226 cells, 1 or 2 uM): toxic and showed degradation of p70
18 | C#CC(C)(C)OC(=O)NN=C1C(Cl)=C(Cl)C(Cl)=C1Cl [4i, 2-Methylbut-3-yn-2-yl 2-(perchlorocyclopenta-2,4-dien-1-ylidene)hydrazine-1-carboxylate] |  | > 5 µM |  | minimal increase |  | 
19 | C#CCOC(=O)NN=C1C(Cl)=C(Cl)C(Cl)=C1Cl [compound 4h, Prop-2-yn-1-yl 2-(perchlorocyclopenta-2,4-dien-1-ylidene)hydrazine-1-carboxylate] |  | 0.8 µM |  | minimal increase | some cytotoxicity; also recorded: enhanced cytotoxic effects | 
20 | CC(C)(C)NN=C1C(Cl)=C(Cl)C(Cl)=C1Cl [compound 3c, 1-(tert-Butyl)-2-(perchlorocyclopenta-2,4-dien-1-ylidene)hydrazine] | no increase | > 3 µM | > 3 µM | only modest activity |  | 
21 | CC(C)(C)OC(=O)NN=C1c2ccccc2-c2ccccc21 [6e, tert-Butyl 2-(9H-fluoren-9-ylidene)hydrazine-1-carboxylate] | no increase | > 5 µM | > 5 µM | did not show any activity | did not show any activity | 
22 | COc1cccc(NN=C2C(Cl)=C(Cl)C(Cl)=C2Cl)c1 [3i, 1-(3-Methoxyphenyl)-2-(perchlorocyclopenta-2,4-dien-1-ylidene)hydrazine] | no increase | > 3 µM | > 3 µM |  |  | 
23 | ClC1=C(Cl)C(Cl)=C(Cl)C1=NNc1ccccc1 [3d, 1-(Perchlorocyclopenta-2,4-dien-1-ylidene)-2-phenylhydrazine] |  | 0.6 µM | 2 µM |  | lower IC50s; also recorded: enhanced cytotoxic effects | 
24 | ClC1=C(Cl)C(Cl)=C(Cl)C1=NN(c1ccccc1)c1ccccc1 [3l, 2-(Perchlorocyclopenta-2,4-dien-1-ylidene)-1,1-diphenylhydrazine] | no increase | > 3 µM | > 3 µM |  |  | 
